Measured values reported in patent publication US11820799B2, “Malassezia factor with antibiotic activity” (priority 2021, dated 2023).

Tested on: S. aureus
Assay: S. aureus growth curves / MIC with oxacillin in TSB
Assay type: cell-based, Staphylococcus aureus
Description: S. aureus growth curves: S. aureus growth curves were performed on a BioTek Synergy™ H1 monochromator-based multi-mode microplate reader in non-treated flat bottom 96-well plates. S. aureus grown overnight in 5 mL of TSB was subcultured 1:10 in fresh TSB for 1 h. Cells were collected through centrifugation at 5,000×g for 1 min and resuspended in fresh TSB. For 0 μg/mL oxacillin, 4 μg/mL oxacillin, and 16 μg/mL oxacillin TSB was utilized with a starting OD600 of 0.02.

Question: Cc1onc(-c2ccccc2)c1C(=O)N[C@@H]1C(=O)N2[C@@H]1SC(C)(C)[C@@H]2C(=O)O [oxacillin] was tested. Which “growth of CFS-resistant strains with Sa-rel mutations (EVOL-P1 Y1 and IsoA)” value (4 μg/mL oxacillin in TSB) did it give?
Answer: able to grow robustly

Question: And the “growth of CFS-resistant strains with Sa-rel mutations (EVOL-P1 Y1 and IsoA)” value (16 μg/mL oxacillin in TSB)?
Answer: able to grow robustly

Question: What about the MIC (Staphylococcus aureus, ancestral strain, rich media (tryptic soy broth, TSB)) of the same compound?
Answer: 4 to 8 µg/mL
